Assay results published in patent US5055472A, “Pyrazolopyrimidine type mevalonolactones” (Nissan Chemical Industries, Ltd., priority 1988, dated 1991).

Tests used:
[1] = system: cholesterol biosynthesis; assay: Test C: Inhibition of cholesterol biosynthesis in vivo; parameters: species or system Male Sprague-Dawley rats; conditions: 0.2 mg/kg, oral administration, rats
Protocol: Male Sprague-Dawley rats weighing about 150 g were fed normal Purina chow diet and water ad libitum, and exposed to 12 hours light/12 hours dark lighting pattern (2:00 PM-2:00 AM dark) prior to use for in vivo inhibition test of cholesterol biosynthesis. Animals were separated groups consisting of five rats as to be average mean body weight in each groups. Test compounds at dosage of 0.02-0.2 mg/kg body weight (0.4 ml/100 g body weight), were dissolved in water or suspended in 0.5% methyl cellulose and orally administered at 2-3 hours before mid-dark (8:00 PM), while cholesterol biosynthesis reaches to maximum in rats. As control, rats were orally administered only water or vehicle. At 90 minutes after sample administration, rats were injected intraperitoneally with 10 μCi of [2-^14 C]sodium acetate at volume of 0.2 ml per one. 2 Hours later, blood samples were obtained and serum were separated immediately. Total lipids were extracted according to the method of Folch et al. and saponified with EtOH-KOH. Nonsaponifiable lipids were extracted with petroleum ether and radio activity incorporated into nonsaponifiable lipids was counted. Inhibitory activity was indicated as percent decrease of counts in testing groups (DPM/2 ml serum/2 hours) from that in control group.

[2] = system: cholesterol biosynthesis in Hep G2 cells; assay: Test B-1: Inhibition of cholesterol biosynthesis in culture cells (Hep G2); assay type: cell-based; conditions: for inhibition at 1 µM: 1.0 × 10^-6 mol/l, Hep G2 cells, read-out: Inhibitory activities at a concentration of 1.0 × 10^-6 mol/l by Test B-1 (Relative activities); for Relative activities by Test B-1: relative to CS-514 = 1 (Test B-1)
Protocol: Hep G2 cells at over 5th passage were seeded to 12 well plates and incubated with Dulbecco's modified Eagle (DME) medium containing 10% of fetal bovine serum (FBS) at 37° C., 5% CO2 until cells were confluent for about 7 days. Cells were exposed to the DME medium contaiing 5% of lipoprotein deficient serum (LpDS) prepared by ultracentrifugation method for over 24 hours. Medium was changed to 0.5 ml of fresh 5% LpDS containing DME before assay and 10 μl of test compound solution dissolved in water or DMSO were added. 0.2 μCi of [2-^14 C]sodium acetate (20 μl ) was added at 0 hr(B-1) or 4 hrs(B-2) after addition of compounds. After 4 hrs further incubation with [2-^14 C]sodium acetate, medium was removed and cells were washed with phosphate buffered saline (PBS) chilled at 4° C. Cells were scraped with rubber policeman and collected to tubes with PBS and digested with 0.2 ml of 0.5 N KOH at 37° C. Aliquot of digestion was used for protein analysis and remaining was saponified with 1 ml of 15% EtOH-KOH at 75° C. for 1 hour. Nonsaponifiable lipids were extracted with petroleum ether and ^14 C radioactivity was counted. Counts were revised by cell protein and indicated with DPM/mg protein. Inhibitory activity of compounds was indicated with IC50. With respect to the compounds of the present invention, the inhibitory activities against the cholesterol biosynthesis in which HMG-CoA reductase serves as a rate limiting enzyme, were measured by the above Test A and B.

[3] = system: cholesterol biosynthesis; assay: Test A: Inhibition of cholesterol biosynthesis from acetate in vitro; assay type: biochemical, male Wistar rat; conditions: relative to CS-514 = 1 (Test A)
Protocol: Enzyme solution was prepared from liver of male Wistar rat billialy connulated and discharged bile for over 24 hours. Liver was cut out at mid-dark and microsome and supernatant fraction which was precipitable with 40-80% of solution of ammonium sulfate (sup fraction) were prepared from liver homogenate according to the modified method of Knauss et. al.; Kuroda, M., et. al., Biochim. Biophys. Acta, 489, 119 (1977). For assay of cholesterol biosynthesis, microsome (0.1 mg protein) and sup fraction (1.0 mg protein) were incubated for 2 hours at 37° C. in 200 μl of the reaction mixture containing ATP; 1 mM, Glutathione; 6 mM, Glucose-1-phosphate; 10 mM, NAD; 0.25 mM, NADP; 0.25 mM, CoA; 0.04 mM and 0.2 mM [2-^14 C]sodium acetate (0.2 μCi) with 4 μl of test compound solution dissolved in water or dimethyl sulfoxide. To stop reaction and saponify, 1 ml of 15% EtOH-KOH was added to the reactions and heated at 75° C. for 1 hour. Nonsaponifiable, lipids were extracted with petroleum ether and incorporated ^14 C radioactivity was counted. Inhibitory activity of compounds was indicated with IC50.
With respect to the compounds of the present invention, the inhibitory activities against the cholesterol biosynthesis in which HMG-CoA reductase serves as a rate limiting enzyme, were measured by the above Test A and B. The results are shown in Tables 2, 3-1 and 3-2.
The relative activities of the compounds of the present invention based on the activities of CS-514 by Test A being evaluated to be 1, are shown in Table 2.

[4] = Test D: Acute toxicity; conditions: mouse, in vivo, 1000 mg/kg; 1,000 mg/kg oral, 0.5% CMC suspension, ICR male mice, after seven days
Protocol: A 0.5% CMC suspension of a test compound was orally administered to ICR male mice (group of three mice). The acute toxicity was determined based on the mortality after seven days. With compound I 5-4 and I-5-6 of the present ivnention, the mortality was 0% even when they were orally administered in an amount of 1,000 mg/kg, respectively.

| SMILES | inhibition at 1 µM ([2]; Homo sapiens, HepG2) | Relative activities by Test A [3] | further results |
| --- | --- | --- | --- |
| CCC(C)C(=O)OC1CC(O)C=C2C=CC(C)C(CCC(O)CC(O)CC(=O)O)C21 (stereo not shown) [CS-514, reference compound] |  |  | percent decrease of counts relative to control group [1]: 34%; IC50 ([2]; Homo sapiens, HepG2, Test B-1, Hep G2 cells, [2-14C]sodium acetate added at 0 hr, read-out: IC50 in Test B1): 3.66 µM |
| CCOC(=O)CC(O)CC(O)/C=C/c1c(C(C)C)nc2cc(C)nn2c1-c1ccc(F)cc1 (stereo not shown) [Compound I-1-1, Ethyl (E)-7-[7'-(4"-fluorophenyl)-2'-methyl-5'-(1"-methylethyl)pyrazolo[1,5-a]pyrimidin-6'-yl]-3,5-dihydroxyhept-6-enoate] | 67.3% |  | Relative activities by Test B-1 [2]: 17.8 |
| CCOC(=O)CC(O)CC(O)/C=C/c1c(C(C)C)nc2cc(-c3ccccc3)nn2c1-c1ccc(F)cc1 (stereo not shown) [Compound I-1-3] | 66.1% |  | Relative activities by Test B-1 [2]: 29.5 |
| Cc1cc2nc(C(C)C)c(/C=C/C(O)CC(O)CC(=O)O)c(-c3ccc(F)cc3)n2n1 (stereo not shown) [Compound I-5-1, Sodium (E)-7-[7'-(4"-fluorophenyl)-2'-methyl-5'-(1"-methylethyl)pyrazolo[1,5-a]pyrimidin-6'-yl]-3,5-dihydroxyhept-6-enoate] | 53.9% | 0.64 | percent decrease of counts relative to control group [1]: 50% |
| CC(C)c1nc2cc(C(C)(C)C)nn2c(-c2ccc(F)cc2)c1/C=C/C(O)CC(O)CC(=O)O (stereo not shown) [Compound I-5-2] | 44.6% | 0.09 |  |
| CC(C)c1nc2cc(-c3ccccc3)nn2c(-c2ccc(F)cc2)c1/C=C/C(O)CC(O)CC(=O)O (stereo not shown) [Compound I-5-3] | 66.3% | 0.27 | Relative activities by Test B-1 [2]: 26.0 |
| Cc1cc2nc(C3CC3)c(/C=C/C(O)CC(O)CC(=O)O)c(-c3ccc(F)cc3)n2n1 (stereo not shown) [Compound I-5-4] | 57.1% | 0.39 | mortality at 168 h [4]: 0% |
| Cc1nn2c(-c3ccc(F)cc3)c(/C=C/C(O)CC(O)CC(=O)O)c(C3CC3)nc2c1C (stereo not shown) [Compound I-5-5] | 55.3% | 0.29 |  |
| Cc1nn2c(-c3ccc(F)cc3)c(/C=C/C(O)CC(O)CC(=O)O)c(C3CC3)nc2c1-c1ccccc1 (stereo not shown) [Compound I-5-6] | 58% | 0.75 | mortality at 168 h [4]: 0% |
| CC(C)c1nc2cc(-c3ccco3)nn2c(-c2ccc(F)cc2)c1/C=C/C(O)CC(O)CC(=O)O (stereo not shown) [Compound I-5-7] |  | 0.20 |  |
| CC(C)c1cc2nc(C3CC3)c(/C=C/C(O)CC(O)CC(=O)O)c(-c3ccc(F)cc3)n2n1 (stereo not shown) [Compound I-5-8] |  | 0.09 |  |
| CC(C)c1nc2c3c(nn2c(-c2ccc(F)cc2)c1/C=C/C(O)CC(O)CC(=O)O)CCCC3 (stereo not shown) [Compound I-5-9] |  | 0.13 |  |
